Structures can show the parent of a compound that is named as a salt. A value given as a limit tells only on which side of the number the result lay.

The LD50 is the dose expected to kill half of the subjects tested.

Data set [1] is described as follows: Acute toxicity (LD50) in rats. The conditions noted are these: rat, in vivo, iv; i.v. (rats).
Data set [2] concerns palpebral edema induced by the histamine releaser Compound 48/80. The data set is described as follows: Palpebral edema induced by the histamine releaser Compound 48/80 in rats (topical instillation). The data set is classed as in vivo, rat (male SD). Conditions: 5 μl/eye of 0.1% test material; for Inhibition rate: edema inhibition rate with respect to the control group, 4 hr after Compound 48/80; for Edema weight: male SD rats, 6 instillations, wet weight 4 hr after Compound 48/80, * p<0.001 vs control. The protocol:
The effect of the compound of the invention on the palpebral edema induced by the histamine releaser Compound 48/80 (the condensation product of N-methyl-p-methoxy-phenethylamine with formaldehyde) (Sigma Chemical Company) was evaluated.
(1) 0.1% L-ascorbyl DL-α-tocopheryl phosphate sodium (Abbreviation: EPC-Na) (dissolved in physiological saline and adjusted to pH 7.0)
(2) 0.1% diphenhydramine hydrochloride (an antihistaminic) (dissolved in physiological saline)
Method: Male SD rats weighing about 180 g were used.
The rats were divided into three groups, i.e. a control group, an EPC-Na group, and a diphenhydramine HCl group, and 20 μl/eye of 0.008% Compound 48/80 (dissolved in physiological saline) was injected subconjunctivally at both lids to induce palpebral edema. Two (2), 1, and 0.5 hr before subconjunctival injection and 0.5, 1.5, and 2.5 hr after the injection, rats in the control group were topically treated with 5 μl/eye of physiological saline and those in the EPC-Na group and diphenhydramine HCl group were similarly treated with 5 μl/eye of the corresponding test materials. Four (4) hr after injection of Compound 48/80 (1.5 hr after the last instillation), the rats were sacrificed and the edematous portion of the palpebra was excised, its wet weight (mg) was determined, and the edema inhibition rate (%) with respect to the control group was calculated.

Data set [3] relates to Type III allergic conjunctivitis. The data set is described as follows: Type III allergic conjunctivitis in rats (rat antirabbit serum injected subconjunctivally). The data set is classed as in vivo. The conditions noted are these: 5 μl/eye, 6 instillations, 0.1% EPC-Na or 0.1% as dexamethasone, wet weight 0.5 hr after last instillation, mean ± S.D. (n = 4), * p<0.001 vs control. The protocol: The effect of the compound of the invention on Type III allergic conjunctivitis was evaluated.
(1) 0.1% EPC-Na (dissolved in physiological saline)
(2) 0.15% dexamethasone sodium metasulfobenzoate
(Visualin Ophthalmic Solution (registered trademark, Senju Pharmaceutical Co. Ltd.) (0.1% as dexamethasone, hereinafter referred to briefly as dexamethasone)
The rats were divided into three groups, namely a control group, an EPC-Na group and a dexamethasone group, and 30 μl of rat antirabbit serum was injected subconjunctivally at both lids. Two (2), 1.5, and 0.5 hr before subconjunctival injection and 0.5, 1.5, and 2.5 hr after the injection, rats in the control group were topically treated with 5 μl/eye of physiological saline and those in the test groups were similarly treated with 5 μl/eye of the respective test materials. At 0.5 hr after the last instillation, the rats were sacrificed, the edema weight (wet weight/mg) was determined, and the inhibition rate (%) with respect to the control group was calculated.

The compound `Cc1c(C)c2c(c(C)c1OP(=O)(O)OC1=C(O)[C@@H]([C@@H](O)CO)OC1=O)CCC(C)(CCCC(C)CCCC(C)CCCC(C)C)O2` (mixture of isomers) [EPC-K, L-ascorbyl DL-α-tocopheryl phosphate potassium] returned an LD50 in data set [1] of at least 100 mg/kg.

In data set [2], `Cc1c(C)c2c(c(C)c1OP(=O)(O)OC1=C(O)[C@@H]([C@@H](O)CO)OC1=O)CCC(C)(CCCC(C)CCCC(C)CCCC(C)C)O2` (mixture of isomers) [EPC-Na, L-ascorbyl DL-α-tocopheryl phosphate sodium] had an Inhibition rate of 33.5% and an Edema weight of 76.1 ± 11.6 mg. The compound also yielded an Edema weight in data set [3] of 57.4 ± 8.1 mg.

Consider `C[C@@H]1C[C@H]2[C@@H]3CCC4=CC(=O)C=C[C@]4(C)[C@@]3(F)[C@@H](O)C[C@]2(C)[C@@]1(O)C(=O)COC(=O)c1cccc(S(=O)(=O)O)c1` [Dexamethasone, dexamethasone sodium metasulfobenzoate, reference compound], for which the Edema weight in data set [3] amounted to 58.2 ± 3.8 mg.

On to `CN(C)CCOC(c1ccccc1)c1ccccc1` [Diphenhydramine HCl, diphenhydramine hydrochloride, reference compound], for which, in data set [2], the Inhibition rate stood at 44.8% and the Edema weight stood at 63.2 ± 8.2 mg.

The record behind these values is patent US5700789A, “Antiallergic composition comprising a phosphoric diester compound” (Senju Pharmaceutical Co., Ltd., priority 1995, dated 1997).
